Experimental data: patent US5714361A, “Phosphatase/phosphodiesterase enzyme inhibitors and methods” (priority 1994, dated 1998)

Experiments:
[1] = biological target: YOP 51 (Yersinia enterocolitica, UniProt P15273); assay: Time-dependent inactivation testing with YOP 51; format: biochemical; details: incubated in a fashion similar to FIG. 1
[2] = biological target: human prostatic acid phosphatase (PAP) (Homo sapiens, UniProt P15309); assay: Time-dependent inactivation of prostatic acid phosphatase (residual activity with PNPP); format: biochemical; details: for time-dependent inactivation of PAP: incubation with PAP (2 μg/mL), 100 mM sodium acetate buffer pH 5.0, 25° C.; for protection of PAP against inactivation by FMPP: competitive inhibitors of PAP added
Chain of human prostatic acid phosphatase (PAP) (P15309 33-386): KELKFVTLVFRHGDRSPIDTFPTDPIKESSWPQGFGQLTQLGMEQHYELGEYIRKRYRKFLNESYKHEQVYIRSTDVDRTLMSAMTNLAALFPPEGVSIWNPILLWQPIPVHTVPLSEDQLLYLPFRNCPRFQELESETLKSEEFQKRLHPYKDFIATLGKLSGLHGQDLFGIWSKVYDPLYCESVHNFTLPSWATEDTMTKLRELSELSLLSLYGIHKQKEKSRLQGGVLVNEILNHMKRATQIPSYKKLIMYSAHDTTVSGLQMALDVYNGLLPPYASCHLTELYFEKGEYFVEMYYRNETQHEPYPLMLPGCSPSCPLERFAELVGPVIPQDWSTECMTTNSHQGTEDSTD
Protocol: Reactions were performed by incubating 1 or 9 with PAP (2 μg/mL) in 100 mM sodium acetate buffer pH 5.0 at 25° C. Residual PAP activity was determined by removing 20 μL aliquots and adding them to a 1 mL solution of 3.0 mM p-nitrophenyl phosphate (PNPP) in 100 mM sodium acetate buffer pH 5.0. After 5 minutes in PNPP, the reactions were quenched with 100 μL of 1.25N NaOH. p-Nitrophenoxide concentration was quantitated from the absorbance at 405 nm, using an extinction coefficient of 18,000 M-1 cm-1. (A) Residual PAP activity after incubation with varying concentrations of 1; 5.0 mM (filled circles), 500 μM (open squares), 125 μM (open triangles), 70 μM (filled diamonds), and 50 μM (open circles). (B) Residual PAP activity after treatment with 6.6 mM FMPP (open triangles), or 23 mM of the phosphonate (15 X Ki) (closed circles).
In this experimental, human prostatic acid phosphatase (PAP) was used as a model enzyme. […] This phosphatase is an important diagnostic marker for prostate cancer, and there is evidence that it may be involved in the regulation of androgen receptor activity in prostate cells.

Chain of YOP 51 (P15273 whole entry): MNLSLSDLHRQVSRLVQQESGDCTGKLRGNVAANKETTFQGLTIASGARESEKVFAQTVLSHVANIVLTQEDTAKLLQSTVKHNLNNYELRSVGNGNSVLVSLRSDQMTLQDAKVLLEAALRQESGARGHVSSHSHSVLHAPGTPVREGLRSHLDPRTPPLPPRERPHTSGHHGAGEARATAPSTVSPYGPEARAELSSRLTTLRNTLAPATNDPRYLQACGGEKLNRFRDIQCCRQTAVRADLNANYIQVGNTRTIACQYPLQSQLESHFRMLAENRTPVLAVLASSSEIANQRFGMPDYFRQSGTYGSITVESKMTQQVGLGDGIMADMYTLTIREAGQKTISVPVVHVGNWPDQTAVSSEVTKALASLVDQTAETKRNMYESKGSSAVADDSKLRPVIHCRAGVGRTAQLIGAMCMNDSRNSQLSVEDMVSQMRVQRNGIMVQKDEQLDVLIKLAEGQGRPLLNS

In the case of `C=C(Br)OP(=O)(OCC)OCC` [XVI, Diethyl 1-Bromovinyl Phosphate], the “inactivation of YOP 51” value [1] is reported as “succesful inactivation of the enzyme”.

With `O=[N+]([O-])c1cc(CCl)ccc1OP(=O)(O)O` [ortho-nitro chloro analogue of FMPP] the “potency of PAP inactivation relative to FMPP or its analogues” value [2] was “substantially greater potency” and the “time-dependent inactivation of PAP” value [2] was “succesfully inactivated the PAP enzyme”.

For `O=P(O)(O)Oc1ccc(CF)cc1` [FMPP, 4-(fluoromethyl)phenyl phosphate], the KI (inactivation) ([2]; read-out: Ki (saturation kinetics of the inactivation process), purified PAP) was 150 µM.

In the case of `O=C(O)C(O)C(O)C(=O)O` (centres unmarked) [tartaric acid, reference compound], the “protection of PAP against inactivation by FMPP” value [2] is reported as “protect against inactivation”.

In the case of `O=P(O)(O)Oc1ccc(CCl)cc1` [chloro analogue of FMPP], the “time-dependent inactivation of PAP” value [2] is reported as “proved to inactivate the PAP enzyme”.

For `O=P(O)(O)Oc1ccc(CBr)cc1` [bromo analogue of FMPP], the “time-dependent inactivation of PAP” value [2] was “proved to inactivate the PAP enzyme”.

With `O=P(O)(O)O` [inorganic phosphate, reference compound] the “protection of PAP against inactivation by FMPP” value [2] was “protect against inactivation”.
